Measurements from PMC11999280, “Design and screening of novel endosomal escape compounds that enhance functional delivery of oligonucleotides in vitro” (Molecular Therapy. Nucleic Acids, 2025).

Key:
Type in all cases: cell-based
[1] = test system: mCherry-GAL9 expressing NCI-H358 cells; assay: GAL9 recruitment assay, NCI-H358; details: calculated mean from >3 independent exp.
Method in brief: (§1)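 Stable mCherry-GAL9 lines; 24 h post-seeding, compound dosed as dose-response. Endpoint: PBS wash, 4% PFA fix (RT), Hoechst 33342 1 μg/mL. Confocal imaging ×20w, GAL9 puncta quantified. N = 3, duplicate wells.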

[2] = test system: mCherry-GAL9 expressing HepG2 cells; assay: GAL9 recruitment assay, HepG2; details: calculated mean from >3 independent exp.
Method in brief: as §1

[3] = test system: mCherry-GAL9 expressing 16HBE cells; assay: GAL9 recruitment assay, 16HBE; details: calculated mean from >3 independent exp.
Method in brief: as §1

[4] = test system: mCherry-GAL9 expressing U2OS cells; assay: GAL9 recruitment assay, U2OS; details: calculated mean from >3 independent exp.
Method in brief: as §1

[5] = test system: mCherry-GAL9 expressing HEK293 cells; assay: GAL9 recruitment assay, HEK293; details: calculated mean from >3 independent exp.
Method in brief: as §1

[6] = test system: HeLa_Luc705 cells (pLuc/705 splice-switching reporter); assay: Functional 705-SSO delivery, luciferase splice-switching assay; details: HeLa-Luc705 + 2 µM SSO; EEE 2.5 - 3 µM; mean from >3 independent experiments
Method in brief: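 Splice correction was measured as firefly luciferase luminescence in Triton X-100 lysates taken 24 h after enhancer treatment. Before treatment, the 10,000 cells/well had spent 24 h with 1–2 μM 705-SSO (2′-OMe, phosphorothioate). For comparison, 100–200 nM SSO was lipofected with LF2000.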

[7] = test system: mCherry-GAL9 expressing HeLa cells; assay: GAL9 recruitment assay, HeLa; details: calculated mean from >3 independent exp.
Method in brief: as §1

[8] = test system: mCherry-GAL9 expressing SHSY5Y cells; assay: GAL9 recruitment assay, SHSY5Y; details: calculated mean from >3 independent exp.
Method in brief: as §1

[9] = test system: mCherry-GAL9 expressing HuH7 cells; assay: GAL9 recruitment assay, HuH7; details: calculated mean from >3 independent exp.
Method in brief: as §1

SMILES: COc1nn(C2CCN(C)CC2)cc1Nc1ncc(Cl)c(-n2ccc3c(C#N)cccc32)n1 [EEE17]
- Gal9 response compared to reference ([1]; EEE 0.31 µM): 0.016
- Gal9 response compared to reference ([1]; EEE 0.62 µM): 0.019
- Gal9 response compared to reference ([1]; EEE 1.25 µM): 0.014
- Gal9 response compared to reference ([1]; EEE 2.5 µM): 0.018
- Gal9 response compared to reference ([1]; EEE 5 µM): 0.028
- Gal9 response compared to reference ([1]; EEE 10 µM): 0.303
- Gal9 response compared to reference ([2]; EEE 0.31 µM): 0.009
- Gal9 response compared to reference ([2]; EEE 0.62 µM): 0.008
- Gal9 response compared to reference ([2]; EEE 1.25 µM): 0.008
- Gal9 response compared to reference ([2]; EEE 2.5 µM): 0.011
- Gal9 response compared to reference ([2]; EEE 5 µM): 0.010
- Gal9 response compared to reference ([2]; EEE 10 µM): 0.030
- Gal9 response compared to reference ([3]; EEE 0.31 µM): 0.008
- Gal9 response compared to reference ([3]; EEE 0.62 µM): 0.010
- Gal9 response compared to reference ([3]; EEE 1.25 µM): 0.008
- Gal9 response compared to reference ([3]; EEE 2.5 µM): 0.010
- Gal9 response compared to reference ([3]; EEE 5 µM): 0.048
- Gal9 response compared to reference ([3]; EEE 10 µM): 0.488
- Gal9 response compared to reference ([4]; EEE 0.31 µM): 0.012
- Gal9 response compared to reference ([4]; EEE 0.62 µM): 0.011
- Gal9 response compared to reference ([4]; EEE 1.25 µM): 0.013
- Gal9 response compared to reference ([4]; EEE 2.5 µM): 0.015
- Gal9 response compared to reference ([4]; EEE 5 µM): 0.021
- Gal9 response compared to reference ([4]; EEE 10 µM): 0.155
- Gal9 response compared to reference ([5]; EEE 0.31 µM): 0.023
- Gal9 response compared to reference ([5]; EEE 0.62 µM): 0.022
- Gal9 response compared to reference ([5]; EEE 1.25 µM): 0.019
- Gal9 response compared to reference ([5]; EEE 2.5 µM): 0.019
- Gal9 response compared to reference ([5]; EEE 5 µM): 0.096
- Gal9 response compared to reference ([5]; EEE 10 µM): 0.437
- Luciferase expression compared to reference [6]: 0.752
- Gal9 response compared to reference ([7]; EEE 0.31 µM): 0.005
- Gal9 response compared to reference ([7]; EEE 0.62 µM): 0.004
- Gal9 response compared to reference ([7]; EEE 1.25 µM): 0.004
- Gal9 response compared to reference ([7]; EEE 2.5 µM): 0.004
- Gal9 response compared to reference ([7]; EEE 5 µM): 0.012
- Gal9 response compared to reference ([7]; EEE 10 µM): 0.201
- Gal9 response compared to reference ([8]; EEE 0.31 µM): 0.014
- Gal9 response compared to reference ([8]; EEE 0.62 µM): 0.013
- Gal9 response compared to reference ([8]; EEE 1.25 µM): 0.012
- Gal9 response compared to reference ([8]; EEE 2.5 µM): 0.014
- Gal9 response compared to reference ([8]; EEE 5 µM): 0.176
- Gal9 response compared to reference ([8]; EEE 10 µM): 0.610
- Gal9 response compared to reference ([9]; EEE 0.31 µM): 0.007
- Gal9 response compared to reference ([9]; EEE 0.62 µM): 0.007
- Gal9 response compared to reference ([9]; EEE 1.25 µM): 0.010
- Gal9 response compared to reference ([9]; EEE 2.5 µM): 0.017
- Gal9 response compared to reference ([9]; EEE 5 µM): 0.021
- Gal9 response compared to reference ([9]; EEE 10 µM): 0.132
